ChEMBL document CHEMBL1150650, “Bioactive constituents from Iryanthera megistophylla” (2002)
In brackets after ≈: the same amount, converted by molar mass. Activity calls are given as the source filed them. No cut-off for these calls is given here.

Tests used:
Potato virus X = assay: Antiviral activity against Potato virus X in half leaf of Chenopodium quinoa at 9.3 mg/mL after 10 days; assay type: functional; conditions: 240 h
Staphylococcus aureus [1] = assay: Antimicrobial activity against Staphylococcus aureus after 24 hrs by disk diffusion method; assay type: functional
Candida albicans [2] = assay: Antimicrobial activity against Candida albicans after 24 hrs by disk diffusion method; assay type: functional
Human alphaherpesvirus 1 = assay: Antiviral activity against HSV1 in african green monkey Vero cells at 320 ug/mL; assay type: functional, organism-based
Staphylococcus aureus [3] = assay: Antimicrobial activity against Staphylococcus aureus at 200 ug/mL after 24 hrs by disk diffusion method; assay type: functional, organism-based
Candida albicans [4] = assay: Antimicrobial activity against Candida albicans at 300 ug/mL after 24 hrs by disk diffusion method; assay type: functional, organism-based
[5] = molecular target: Acetylcholinesterase (Homo sapiens) (UniProt P22303); assay: Inhibition of acetylcholinesterase-mediated hydrolysis of acetylcholine at 0.8 mg/mL relative to galanthamine
Chain of Acetylcholinesterase (Homo sapiens) (P22303 whole entry): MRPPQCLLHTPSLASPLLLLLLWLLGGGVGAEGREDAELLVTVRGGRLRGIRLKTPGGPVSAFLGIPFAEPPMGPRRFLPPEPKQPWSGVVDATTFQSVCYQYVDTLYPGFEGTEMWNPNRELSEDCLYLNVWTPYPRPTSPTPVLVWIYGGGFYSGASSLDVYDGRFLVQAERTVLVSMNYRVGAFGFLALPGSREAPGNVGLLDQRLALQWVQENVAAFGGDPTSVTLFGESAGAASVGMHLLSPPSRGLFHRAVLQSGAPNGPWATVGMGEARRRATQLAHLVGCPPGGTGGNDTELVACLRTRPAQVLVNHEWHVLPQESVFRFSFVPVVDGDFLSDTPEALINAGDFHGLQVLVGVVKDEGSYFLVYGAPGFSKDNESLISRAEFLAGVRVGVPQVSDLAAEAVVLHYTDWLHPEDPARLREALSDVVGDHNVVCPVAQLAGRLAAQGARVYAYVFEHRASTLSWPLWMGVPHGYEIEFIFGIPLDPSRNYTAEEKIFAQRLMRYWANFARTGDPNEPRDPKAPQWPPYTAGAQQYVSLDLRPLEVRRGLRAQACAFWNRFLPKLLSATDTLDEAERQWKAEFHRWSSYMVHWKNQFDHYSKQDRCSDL

| Compound | inhibition at 9300 µg/mL (Potato virus X) | MIC (Staphylococcus aureus [1]) | MIC (Candida albicans [2]) | MIC (Human alphaherpesvirus 1) | MIC (Staphylococcus aureus [3]) | MIC (Candida albicans [4]) | inhibition [5] |
| --- | --- | --- | --- | --- | --- | --- | --- |
| Oc1cc(O)c2c(c1)O[C@H](c1ccc(O)c(O)c1)[C@H](O)[C@H]2c1c(O)cc(O)c2c1O[C@H](c1ccc(O)c(O)c1)[C@H](O)C2 [PROCYANIDIN B2] | 98% | 100 µg/mL (≈ 173 µM) | 150 µg/mL (≈ 259 µM) |  |  |  |  |
| C[C@@H]1OC(=O)[C@@H](CCCCCCCCCCCCCCCCCc2ccccc2)[C@@H]1O [GRANDINOLIDE] | 30% |  |  | inactive | inactive | inactive |  |
| COc1ccc(CCC(=O)c2c(OC)cc(O)c([C@H](c3ccc(O)cc3)[C@@H](C)[C@H](C)Cc3ccc(O)cc3)c2O)cc1 [IRYANTHERIN L] | 67% |  |  | inactive | inactive | inactive |  |
| COc1ccc(CCC(=O)c2c(OC)cc(O)c([C@@H](c3ccc(O)cc3)[C@@H](C)[C@H](C)Cc3ccc(O)cc3)c2O)cc1 [IRYANTHERIN K] | 89% | 50 µg/mL (≈ 87.6 µM) |  |  |  | inactive | 77.4% |
| CCCCCCCC/C=C\CCCCCCCCCCCCCCCC[C@H]1C(=O)O[C@H](C)[C@@H]1O [MEGISLACTONE] | 20% |  |  | inactive | inactive | inactive |  |
| NC(=O)c1ncn([C@@H]2O[C@H](CO)[C@@H](O)[C@H]2O)n1 [RIBAVIRIN] | 94% |  |  |  |  |  |  |
| O=C1C[C@H](c2ccc(O)c(O)c2)c2c(cc(O)c3c2O[C@H](c2ccc(O)c(O)c2)[C@H](O)[C@H]3c2c(O)cc(O)c3c2O[C@H](c2ccc(O)c(O)c2)[C@H](O)C3)O1 [CINCHONAIN IIA] | 100% |  | 150 µg/mL (≈ 203 µM) | inactive | inactive |  |  |
| O=c1c(O)c(-c2ccc(O)c(O)c2)oc2cc(O)cc(O)c12 [QUERCETIN] | 100% |  |  |  |  |  |  |
| COc1ccc(-c2c(C)c(C)cc3ccc(O)cc23)cc1 | 36% |  |  | inactive | inactive | inactive | 67.6% |
